According to patent US20220395472A1 (Dermavant Sciences GmbH, priority 2021, published 2022):

Assays:
[1] = system: adults with plaque psoriasis; test: Long-term extension study (PSOARING 3): % BSA affected; type: in vivo, human
Protocol: The % BSA affected is an estimate of the percentage of total involved skin with psoriasis. For the purpose of clinical estimation, the total palmar surface of the subject's palm and digits was assumed to be approximately equivalent to 1% BSA. The % BSA affected by psoriasis was evaluated (from 0% to 100%). Details on calculation of approximate % BSA involvement in each subject (total and individual) can be found in Appendix 2 of the protocol. Percent BSA is a static assessment made without reference to previous scores.
At Screening, Baseline, and for all efficacy assessments, lesions on the subject's scalp, palms, fingernails, toenails, and soles were not included in the calculation of % BSA affected as these areas were excluded from the efficacy analyses.

[2] = system: adults with plaque psoriasis; test: Long-term extension study (PSOARING 3): PASI score, PASI75, PASI90; type: in vivo, human
From the text: The PASI scoring system is a widely used, standard, clinical tool for assessing the severity of psoriasis that takes into account the overall severity of erythema (redness), induration (plaque thickness), scale, and the extent of % BSA affected with psoriasis. The 3 clinical signs are each graded on a 5 point scale (0 to 4) and the % BSA affected is scored on a 7 point scale (0 to 6) for each of the 4 specified body regions (head, upper extremities, trunk, and lower extremities). Individual scores are multiplied by a weighted factor for each body region; the sum of these scores gives the overall PASI score. Higher scores indicate more severe disease. PASI is a static assessment made without reference to previous scores. Details on PASI calculation can be found in Appendix 2 of the protocol.

[3] = Week 16 LOCF, Tapinarof (Pivotal)
[4] = Week 16 LOCF, Vehicle (Pivotal)
[5] = Week 16 OC, Tapinarof (Pivotal)
[6] = Week 40 LOCF, Tapinarof (Pivotal)
[7] = Week 40 LOCF, Vehicle (Pivotal)
[8] = Week 40 OC, Tapinarof (Pivotal)

CC(C)c1c(O)cc(/C=C/c2ccccc2)cc1O [Tapinarof Cream 1%]
% BSA affected, Observed, Mean ([1]; Baseline, Overall): 4.65 % BSA
% BSA affected, Observed, Median ([1]; Baseline, Overall): 3.00 % BSA
% BSA affected, Observed, Mean ([1]; Baseline, Tapinarof (Pivotal)): 3.31 % BSA
% BSA affected, Observed, Median ([1]; Baseline, Tapinarof (Pivotal)): 2.00 % BSA
% BSA affected, CFBL, Mean ([1]; Week 16 LOCF, Overall): −1.85 % BSA
% BSA affected, CFBL, Median ([1]; Week 16 LOCF, Overall): −0.96 % BSA
% BSA affected, Observed, Mean ([1]; Week 16 LOCF, Overall): 2.82 % BSA
% BSA affected, Observed, Median ([1]; Week 16 LOCF, Overall): 1.20 % BSA
% BSA affected, Percent CFBL, Mean ([1]; Week 16 LOCF, Overall): −20.99%
% BSA affected, Percent CFBL, Median ([1]; Week 16 LOCF, Overall): −46.13%
% BSA affected, CFBL, Mean [1, 3]: −0.77 % BSA
% BSA affected, CFBL, Median [1, 3]: −0.20 % BSA
% BSA affected, Observed, Mean [1, 3]: 2.54 % BSA
% BSA affected, Observed, Median [1, 3]: 1.00 % BSA
% BSA affected, Percent CFBL, Mean [1, 3]: −5.67%
% BSA affected, Percent CFBL, Median [1, 3]: −33.33%
% BSA affected, CFBL, Mean [1, 4]: −3.96 % BSA
% BSA affected, CFBL, Median [1, 4]: −2.98 % BSA
% BSA affected, Observed, Mean [1, 4]: 3.36 % BSA
% BSA affected, Observed, Median [1, 4]: 1.80 % BSA
% BSA affected, Percent CFBL, Mean [1, 4]: −47.15%
% BSA affected, Percent CFBL, Median [1, 4]: −63.42%
% BSA affected, CFBL, Mean ([1]; Week 16 OC, Overall): −2.11 % BSA
% BSA affected, CFBL, Median ([1]; Week 16 OC, Overall): −1.00 % BSA
% BSA affected, Observed, Mean ([1]; Week 16 OC, Overall): 2.28 % BSA
% BSA affected, Observed, Median ([1]; Week 16 OC, Overall): 1.02 % BSA
% BSA affected, Percent CFBL, Mean ([1]; Week 16 OC, Overall): −31.25%
% BSA affected, Percent CFBL, Median ([1]; Week 16 OC, Overall): −50.00%
% BSA affected, CFBL, Mean [1, 5]: −0.97 % BSA
% BSA affected, CFBL, Median [1, 5]: −0.23 % BSA
% BSA affected, Observed, Mean [1, 5]: 1.97 % BSA
% BSA affected, Observed, Median [1, 5]: 1.00 % BSA
% BSA affected, Percent CFBL, Mean [1, 5]: −18.46%
% BSA affected, Percent CFBL, Median [1, 5]: −36.96%
% BSA affected, CFBL, Mean ([1]; Week 16 OC, Vehicle (Pivotal)): −4.40 % BSA
% BSA affected, CFBL, Median ([1]; Week 16 OC, Vehicle (Pivotal)): −3.18 % BSA
% BSA affected, Observed, Mean ([1]; Week 16 OC, Vehicle (Pivotal)): 2.89 % BSA
% BSA affected, Observed, Median ([1]; Week 16 OC, Vehicle (Pivotal)): 1.50 % BSA
% BSA affected, Percent CFBL, Mean ([1]; Week 16 OC, Vehicle (Pivotal)): −53.18%
% BSA affected, Percent CFBL, Median ([1]; Week 16 OC, Vehicle (Pivotal)): −66.67%
% BSA affected, CFBL, Mean ([1]; Week 40 LOCF, Overall): −2.04 % BSA
% BSA affected, CFBL, Median ([1]; Week 40 LOCF, Overall): −1.00 % BSA
% BSA affected, Observed, Mean ([1]; Week 40 LOCF, Overall): 2.63 % BSA
% BSA affected, Observed, Median ([1]; Week 40 LOCF, Overall): 1.00 % BSA
% BSA affected, Percent CFBL, Mean ([1]; Week 40 LOCF, Overall): −16.29%
% BSA affected, Percent CFBL, Median ([1]; Week 40 LOCF, Overall): −55.78%
% BSA affected, CFBL, Mean [1, 6]: −0.88 % BSA
% BSA affected, CFBL, Median [1, 6]: −0.30 % BSA
% BSA affected, Observed, Mean [1, 6]: 2.44 % BSA
% BSA affected, Observed, Median [1, 6]: 1.00 % BSA
% BSA affected, Percent CFBL, Mean [1, 6]: −0.11%
% BSA affected, Percent CFBL, Median [1, 6]: −46.61%
% BSA affected, CFBL, Mean [1, 7]: −4.33 % BSA
% BSA affected, CFBL, Median [1, 7]: −3.30 % BSA
% BSA affected, Observed, Mean [1, 7]: 2.99 % BSA
% BSA affected, Observed, Median [1, 7]: 1.00 % BSA
% BSA affected, Percent CFBL, Mean [1, 7]: −43.91%
% BSA affected, Percent CFBL, Median [1, 7]: −75.06%
% BSA affected, CFBL, Mean ([1]; Week 40 OC, Overall): −2.35 % BSA
% BSA affected, CFBL, Median ([1]; Week 40 OC, Overall): −1.50 % BSA
% BSA affected, Observed, Mean ([1]; Week 40 OC, Overall): 1.85 % BSA
% BSA affected, Observed, Median ([1]; Week 40 OC, Overall): 0.72 % BSA
% BSA affected, Percent CFBL, Mean ([1]; Week 40 OC, Overall): −35.43%
% BSA affected, Percent CFBL, Median ([1]; Week 40 OC, Overall): −67.00%
% BSA affected, CFBL, Mean [1, 8]: −0.93 % BSA
% BSA affected, CFBL, Median [1, 8]: −0.49 % BSA
% BSA affected, Observed, Mean [1, 8]: 1.75 % BSA
% BSA affected, Observed, Median [1, 8]: 0.68 % BSA
% BSA affected, Percent CFBL, Mean [1, 8]: −21.60%
% BSA affected, Percent CFBL, Median [1, 8]: −57.39%
% BSA affected, CFBL, Mean ([1]; Week 40 OC, Vehicle (Pivotal)): −5.30 % BSA
% BSA affected, CFBL, Median ([1]; Week 40 OC, Vehicle (Pivotal)): −4.49 % BSA
% BSA affected, Observed, Mean ([1]; Week 40 OC, Vehicle (Pivotal)): 2.07 % BSA
% BSA affected, Observed, Median ([1]; Week 40 OC, Vehicle (Pivotal)): 0.80 % BSA
% BSA affected, Percent CFBL, Mean ([1]; Week 40 OC, Vehicle (Pivotal)): −60.22%
% BSA affected, Percent CFBL, Median ([1]; Week 40 OC, Vehicle (Pivotal)): −86.06%
PASI, Observed, Mean ([2]; Baseline, Overall): 4.76
PASI, Observed, Median ([2]; Baseline, Overall): 3.40
PASI, Observed, Mean ([2]; Baseline, Tapinarof (Pivotal)): 3.28
PASI, Observed, Median ([2]; Baseline, Tapinarof (Pivotal)): 2.30
PASI, CFBL, Mean ([2]; Week 16 LOCF, Overall): −1.80
PASI, CFBL, Median ([2]; Week 16 LOCF, Overall): −0.90
PASI, Observed, Mean ([2]; Week 16 LOCF, Overall): 2.99
PASI, Observed, Median ([2]; Week 16 LOCF, Overall): 1.80
PASI, Percent CFBL, Mean ([2]; Week 16 LOCF, Overall): −20.93%
PASI, Percent CFBL, Median ([2]; Week 16 LOCF, Overall): −40.91%
PASI, CFBL, Mean [2, 3]: −0.54
PASI, CFBL, Median [2, 3]: −0.20
PASI, Observed, Mean [2, 3]: 2.74
PASI, Observed, Median [2, 3]: 1.80
PASI, Percent CFBL, Mean [2, 3]: −3.20%
PASI, Percent CFBL, Median [2, 3]: −25.00%
PASI, CFBL, Mean [2, 4]: −4.24
PASI, CFBL, Median [2, 4]: −3.80
PASI, Observed, Mean [2, 4]: 3.47
PASI, Observed, Median [2, 4]: 2.40
PASI, Percent CFBL, Mean [2, 4]: −51.02%
PASI, Percent CFBL, Median [2, 4]: −59.38%
PASI, CFBL, Mean ([2]; Week 16 OC, Overall): −1.99
PASI, CFBL, Median ([2]; Week 16 OC, Overall): −1.00
PASI, Observed, Mean ([2]; Week 16 OC, Overall): 2.57
PASI, Observed, Median ([2]; Week 16 OC, Overall): 1.80
PASI, Percent CFBL, Mean ([2]; Week 16 OC, Overall): −25.35%
PASI, Percent CFBL, Median ([2]; Week 16 OC, Overall): −44.72%
PASI, CFBL, Mean [2, 5]: −0.67
PASI, CFBL, Median [2, 5]: −0.40
PASI, Observed, Mean [2, 5]: 2.38
PASI, Observed, Median [2, 5]: 1.60
PASI, Percent CFBL, Mean [2, 5]: −7.79%
PASI, Percent CFBL, Median [2, 5]: −30.00%
PASI, CFBL, Mean ([2]; Week 16 OC, Vehicle (Pivotal)): −4.59
PASI, CFBL, Median ([2]; Week 16 OC, Vehicle (Pivotal)): −3.80
PASI, Observed, Mean ([2]; Week 16 OC, Vehicle (Pivotal)): 2.95
PASI, Observed, Median ([2]; Week 16 OC, Vehicle (Pivotal)): 2.10
PASI, Percent CFBL, Mean ([2]; Week 16 OC, Vehicle (Pivotal)): −55.09%
PASI, Percent CFBL, Median ([2]; Week 16 OC, Vehicle (Pivotal)): −64.02%
PASI, CFBL, Median ([2]; Week 40 LOCF, Overall): −0.90
PASI, Observed, Mean ([2]; Week 40 LOCF, Overall): 2.97
PASI, Observed, Median ([2]; Week 40 LOCF, Overall): 1.80
PASI, Percent CFBL, Mean ([2]; Week 40 LOCF, Overall): −10.45%
PASI, Percent CFBL, Median ([2]; Week 40 LOCF, Overall): −44.44%
PASI, CFBL, Mean [2, 6]: −0.48
PASI, CFBL, Median [2, 6]: −0.20
PASI, Observed, Mean [2, 6]: 2.80
PASI, Observed, Median [2, 6]: 1.80
PASI, Percent CFBL, Mean [2, 6]: 11.96%
PASI, Percent CFBL, Median [2, 6]: −27.27%
PASI, CFBL, Mean [2, 7]: −4.42
PASI, CFBL, Median [2, 7]: −3.90
PASI, Observed, Mean [2, 7]: 3.28
PASI, Observed, Median [2, 7]: 2.00
PASI, Percent CFBL, Mean [2, 7]: −48.42%
PASI, Percent CFBL, Median [2, 7]: −68.66%
PASI, CFBL, Mean ([2]; Week 40 OC, Overall): −2.14
PASI, CFBL, Median ([2]; Week 40 OC, Overall): −1.20
PASI, Observed, Mean ([2]; Week 40 OC, Overall): 2.36
PASI, Observed, Median ([2]; Week 40 OC, Overall): 1.60
PASI, Percent CFBL, Mean ([2]; Week 40 OC, Overall): −16.18%
PASI, Percent CFBL, Median ([2]; Week 40 OC, Overall): −56.70%
PASI, CFBL, Mean [2, 8]: −0.51
PASI, CFBL, Median [2, 8]: −0.30
PASI, Observed, Mean [2, 8]: 2.38
PASI, Observed, Median [2, 8]: 1.60
PASI, Percent CFBL, Mean [2, 8]: 8.49%
PASI, Percent CFBL, Median [2, 8]: −35.24%
PASI, CFBL, Mean ([2]; Week 40 OC, Vehicle (Pivotal)): −5.53
PASI, CFBL, Median ([2]; Week 40 OC, Vehicle (Pivotal)): −4.80
PASI, Observed, Mean ([2]; Week 40 OC, Vehicle (Pivotal)): 2.31
PASI, Observed, Median ([2]; Week 40 OC, Vehicle (Pivotal)): 1.40
PASI, Percent CFBL, Mean ([2]; Week 40 OC, Vehicle (Pivotal)): −60.12%
PASI, Percent CFBL, Median ([2]; Week 40 OC, Vehicle (Pivotal)): −76.39%
